Assay results published in publication PMC9694494, “Resveratrol/Hydrazone Hybrids: Synthesis and Chemopreventive Activity against Colorectal Cancer Cells” (Pharmaceutics, 2022).
Where two headings read alike, the source gives them in different places.

Key:
CHO-K1 cells = test: SRB cell viability (cytotoxicity), CHO-K1; format: cell-based; conditions: Cricetulus griseus, CHO-K1 nonmalignant cells, read-out: IC50 ± SEM CHO
Description: (§1) Human colon cancer cell lines (SW480 and SW620), together with nonmalignant cells (CHO-K1 and HaCaT) were used to study the biological activity. Cells were purchased from the European Collection of Authenticated Cell Cultures (ECACC, UK). Dulbecco’s Modified Eagle Medium (DMEM) containing heat-inactivated (56 °C) horse serum (10%), non-essential amino acids (1%) and antibiotics (penicillin/streptomycin, 1%) (Gibco Invitrogen, Carlsbad, CA, USA) was used to maintain the cells, reducing the horse serum to 3%, and, adding insulin ([…]), transferrin ([…]) and selenium (5 ng/mL) (ITS-defined medium; Gibco, Invitrogen, Carlsbad, CA, USA) for all the experiments.
(§2) The colorimetric test with Sulforhodamine B (SRB) was used to evaluate cell viability. Cell density was adjusted to seed 20.000 cells/well in 96-well tissue culture plates. Cells were first incubated for 24 h and then treated with the synthesized hybrids, the lead compounds (PIH and resveratrol), and the reference drug (5-FU) (concentrations between 0.01 and 200 µM), using DMSO (below 1%) as vehicle control. The optimum conditions were 37 °C and 5% CO2. After the end of each treatment, cold trichloroacetic acid (MERCK, 50% v/v) was added and preserved for one hour at 4 °C, to fix the cells. Then, cell proteins were stained with 0.4% (w/v) SRB (Sigma-Aldrich, St. Louis, MO, USA), and subsequently washed with acetic acid (1%) to remove unbound SRB. After air-drying, protein-bound SRB was solubilized in 10 mM Tris-base before reading the absorbance at 492 nm in a microplate reader (Mindray MR-96A). All experiments were performed at least three times.

HaCaT cells = test: SRB cell viability (cytotoxicity), HaCaT; format: cell-based; conditions: Homo sapiens, HaCaT nonmalignant cells, read-out: IC50 ± SEM HACAT
Description: as §1, §2

SW480 cells [1] = test: SRB cell viability (cytotoxicity), SW480; format: cell-based, human; conditions: for Selectivity Index SI1: CHO-K1/SW480 IC50 ratio; for Selectivity Index SI2: HaCaT/SW480 IC50 ratio; for IC50: Homo sapiens, SW480, SRB, read-out: IC50 ± SEM SW480
Description: as §1, §2

SW620 cells [2] = test: SRB cell viability (cytotoxicity), SW620; format: cell-based, human; conditions: for Selectivity Index SI3: CHO-K1/SW620 IC50 ratio; for IC50: Homo sapiens, SW-620, SRB, read-out: IC50 ± SEM SW620
Description: as §1, §2

SW480 cells [3] = test: Antiproliferative activity (SRB, 2-8 days), SW480; format: cell-based; conditions: Homo sapiens, read-out: Viability (%) ± SE; for viability at 3 µM: SW480, 3 µM; for viability at 6 µM: SW480, 6 µM; for viability at 12 µM: SW480, 12 µM; for viability at 24 µM: SW480, 24 µM; for viability at 48 µM: SW480, 48 µM
Description: (§3) The procedure for evaluating the antiproliferative activity was carried out using the same colorimetric test (SRB) described for cell viability, with minor modifications. Briefly, 2500 cells/well were seeded in 96-well tissue culture plates and incubated as in the previously described conditions for 0, 2, 4, 6, and 8 days. […] The culture medium was changed every 48 h. After each incubation time, cells were fixed, stained, and read as previously described for this technique.

SW620 cells [4] = test: Antiproliferative activity (SRB, 2-8 days), SW620; format: cell-based; conditions: Homo sapiens, read-out: Viability (%) ± SE; for viability at 3 µM: SW620, 3 µM; for viability at 6 µM: SW620, 6 µM; for viability at 12 µM: SW620, 12 µM; for viability at 24 µM: SW620, 24 µM; for viability at 48 µM: SW620, 48 µM
Description: as §3

SW480 cells [5] = test: Mitochondrial membrane potential (DiOC6/PI flow cytometry), SW480; format: cell-based, human
Description: (§4) To evaluate changes in mitochondrial membrane permeability, the fluorescent dyes DiOC6 (3,3′-dihexyloxacarbocyanine iodide, Thermo Fisher Scientific, Waltham, MA, USA) and propidium iodide (PI) were used. Cell density was adjusted to seed 2.5 × 10^5 cells/well in 6-well tissue culture plates. […] Subsequently, cells were scraped with the same culture mean and stained with both fluorescent dyes, incubating at room temperature for 30 min in darkness. For each sample, 10,000 events were analyzed through flow cytometry with excitation at 488 nm and detection of the emission with the green (530/15 nm) and the red (610/20 nm) filters. The results informed about the cells with depolarized mitochondrial membranes.

SW620 cells [6] = test: Mitochondrial membrane potential (DiOC6/PI flow cytometry), SW620; format: cell-based, human; conditions: SW620, treated at IC50 value
Description: as §4

[7] = SW-620, 48 h, 2 days after plating
[8] = SW-620, 96 h, 4 days after plating
[9] = SW-620, 144 h, 6 days after plating
[10] = SW-620, 192 h, 8 days after plating
[11] = SW480, treated at IC50 value, DiOC6/PI

`O=C(N/N=C/c1c(O)cc(O)cc1/C=C/c1ccc(O)cc1)c1ccncc1` [compound 7, N′-((E)-2,4-dihydroxy-6-((E)-4-hydroxystyryl)benzylidene)isonicotinohydrazide] was tested, and the IC50 (CHO-K1 cells; 24 H) was 67.2 ± 4.32 µM, the IC50 (CHO-K1 cells; 48 H) was 40.5 ± 2.4 µM and the IC50 (HaCaT cells; 24 H) was 79 ± 6.73 µM. The IC50 (HaCaT cells; 48 H) was 47.3 ± 2.5 µM, the “Selectivity Index SI1” value (SW480 cells [1]; 24 H) was 0.80 and the “Selectivity Index SI2” value (SW480 cells [1]; 24 H) was 0.94. For the same compound, the “Selectivity Index SI1” value (SW480 cells [1]; 48 H) was 2.14, the “Selectivity Index SI2” value (SW480 cells [1]; 48 H) was 2.49 and the IC50 (SW480 cells [1]; 24 H) was 84.2 ± 10 µM. The IC50 (SW480 cells [1]; 48 H) was 19 ± 1.4 µM, the “selectivity (SI)” value (SW480 cells [1]; SW480 versus the nonmalignant cell lines, 48 h after treatment) was over 1 and the “Selectivity Index SI3” value (SW620 cells [2]; 24 H) was 0.55. For the same compound, the “Selectivity Index SI4” value (SW620 cells [2]; 24 H, HaCaT/SW620 IC50 ratio) was 0.64, the “Selectivity Index SI3” value (SW620 cells [2]; 48 H) was 1.06 and the IC50 (SW620 cells [2]; 24 H) was 122 ± 10.8 µM. The IC50 (SW620 cells [2]; 48 H) was 38.4 ± 3.3 µM, the “selectivity (SI)” value (SW620 cells [2]; SW620 versus the nonmalignant cell lines, 48 h after treatment) was over 1 and the viability at 3 µM (SW480 cells [3]; 48 h, 2 days after plating) was 100%. It also gave a viability at 6 µM (SW480 cells [3]; 48 h, 2 days after plating) of 90.5 ± 1.38%, a viability at 12 µM (SW480 cells [3]; 48 h, 2 days after plating) of 59.1 ± 0.27% and a viability at 24 µM (SW480 cells [3]; 48 h, 2 days after plating) of 27.2 ± 0.5%. The viability at 48 µM (SW480 cells [3]; 48 h, 2 days after plating) was 19.6 ± 2.58%, the viability at 3 µM (SW480 cells [3]; 96 h, 4 days after plating) was 99.45 ± 0.55% and the viability at 6 µM (SW480 cells [3]; 96 h, 4 days after plating) was 78.5 ± 1.56%. The viability at 12 µM (SW480 cells [3]; 96 h, 4 days after plating) was 11.4 ± 0.35%, the viability at 24 µM (SW480 cells [3]; 96 h, 4 days after plating) was 0% and the viability at 48 µM (SW480 cells [3]; 96 h, 4 days after plating) was 0%. It also gave a viability at 3 µM (SW480 cells [3]; 144 h, 6 days after plating) of 96.87 ± 0.14%, a viability at 6 µM (SW480 cells [3]; 144 h, 6 days after plating) of 67.4 ± 1.82% and a viability at 12 µM (SW480 cells [3]; 144 h, 6 days after plating) of 5.49 ± 0.05%. It also gave a viability at 24 µM (SW480 cells [3]; 144 h, 6 days after plating) of 0%, a viability at 48 µM (SW480 cells [3]; 144 h, 6 days after plating) of 0% and a viability at 3 µM (SW480 cells [3]; 192 h, 8 days after plating) of 74.76 ± 0.02%. For the same compound, the viability at 6 µM (SW480 cells [3]; 192 h, 8 days after plating) was 48.5 ± 1.11%, the viability at 12 µM (SW480 cells [3]; 192 h, 8 days after plating) was 2.52 ± 0.22% and the viability at 24 µM (SW480 cells [3]; 192 h, 8 days after plating) was 0%. The viability at 48 µM (SW480 cells [3]; 192 h, 8 days after plating) was 0%, the viability at 3 µM (SW620 cells [4]; [7]) was 89.3 ± 1.65% and the viability at 6 µM (SW620 cells [4]; [7]) was 88 ± 2.48%. For the same compound, the viability at 12 µM (SW620 cells [4]; [7]) was 67.82 ± 0.4%, the viability at 24 µM (SW620 cells [4]; [7]) was 45.21 ± 0.38% and the viability at 48 µM (SW620 cells [4]; [7]) was 41.5 ± 3.3%. For the same compound, the viability at 3 µM (SW620 cells [4]; [8]) was 87.29 ± 0.75%, the viability at 6 µM (SW620 cells [4]; [8]) was 72.4 ± 0.9% and the viability at 12 µM (SW620 cells [4]; [8]) was 33 ± 1.8%. It also gave a viability at 24 µM (SW620 cells [4]; [8]) of 27.8 ± 2.96%, a viability at 48 µM (SW620 cells [4]; [8]) of 6.31 ± 0.74% and a viability at 3 µM (SW620 cells [4]; [9]) of 59.2 ± 2.77%. It also gave a viability at 6 µM (SW620 cells [4]; [9]) of 43.4 ± 0.48%, a viability at 12 µM (SW620 cells [4]; [9]) of 17.8 ± 0.3% and a viability at 24 µM (SW620 cells [4]; [9]) of 8.13 ± 1.48%. The viability at 48 µM (SW620 cells [4]; [9]) was 0.26 ± 0.07%, the viability at 3 µM (SW620 cells [4]; [10]) was 46.55 ± 0.03% and the viability at 6 µM (SW620 cells [4]; [10]) was 38.53 ± 0.28%. It also gave a viability at 12 µM (SW620 cells [4]; [10]) of 5.53 ± 0.11%, a viability at 24 µM (SW620 cells [4]; [10]) of 3.93 ± 0.59% and a viability at 48 µM (SW620 cells [4]; [10]) of 0%. For the same compound, the “effect on mitochondrial membrane potential (ΔΨm)” value (SW480 cells [5]; SW480, regarding the control, increase in DiOC6 low population) was “causing depolarization in the mitochondrial membrane”, the “Q1: PI-positive cells with membrane damage” value (SW480 cells [5]; [11]) was 1.24% and the “Q2: PI-positive cells with membrane damage” value (SW480 cells [5]; [11]) was 0.052%. For the same compound, the “Q3: DiOC6 high, live cells with high membrane polarization” value (SW480 cells [5]; [11]) was 67.3%, the “Q4: DiOC6 low, cells in latency that lose membrane polarization” value (SW480 cells [5]; [11]) was 31.4% and the “Q1: PI-positive cells with membrane damage” value (SW620 cells [6]) was 2.19%. The “Q2: PI-positive cells with membrane damage” value (SW620 cells [6]) was 1.54%, the “Q3: DiOC6 high, live cells with high membrane polarization” value (SW620 cells [6]) was 89.3% and the “Q4: DiOC6 low, cells in latency that lose membrane polarization” value (SW620 cells [6]) was 6.99%.
